Legend:
[1] = species on record: Rattus norvegicus; test: Fecal recovery in non-colostomized rats at 2 hr intervals for 48 h; type: functional
[2] = species on record: Rattus norvegicus; test: Urinary recovery in non-colostomized rats at 2 hr intervals for 48 h; type: functional, Urine
[3] = species on record: Rattus norvegicus; test: Urinary recovery in colostomized rats at 2 hr intervals for 48 h; type: functional, Urine
[4] = species on record: Rattus norvegicus; test: Fecal recovery in colostomized rats at 2 hr intervals for 48 h; type: functional
[5] = Half-life was determined by hydrolysis of compound in a solution of peptidases; type: ADME

Compound	Fecal recovery [1] [%]	Urinary recovery [2] [%]	Urinary recovery [3] [%]	Fecal recovery [4] [%]	half-life [5] [h]
N[C@@H](CC(=O)[O-])C(=O)Nc1ccc(O)c(C(=O)[O-])c1.[Na+].[Na+]	34.2	30.09	32.66	35.73	–
N[C@@H](CCC(=O)[O-])C(=O)Nc1ccc(O)c(C(=O)[O-])c1.[Na+].[Na+]	44.29	32.42	31.83	44.2	1.35
Nc1ccc(O)c(C(=O)O)c1 [MESALAMINE]	4.32	78.84	69.61	5.08	–
O=C(O)c1cc(/N=N/c2ccc(S(=O)(=O)Nc3ccccn3)cc2)ccc1O [SULFASALAZINE]	38.9	32.21	33.34	37.77	–

Reference: ChEMBL document CHEMBL1126985, “Brush-border-enzyme-mediated intestine-specific drug delivery. Amino acid prodrugs of 5-aminosalicylic acid” (J Med Chem, 1993)
